The values below come from patent publication US20200262864A1, “DEUTERATED FORMS OF AMINOSTEROLS AND METHODS OF USING THE SAME” (Enterin, Inc., priority 2019, published 2020).

Data set [1] deals with T1, Protein Tyrosine Phosphatase 1B (PTP1B), human truncated form (1-321) (Homo sapiens, UniProt P18031).
T1 construct: The enzyme was the human truncated form (1-321), recombinantly produced in E. coli; host or cells: E. coli
T1 sequence (P18031 1-321): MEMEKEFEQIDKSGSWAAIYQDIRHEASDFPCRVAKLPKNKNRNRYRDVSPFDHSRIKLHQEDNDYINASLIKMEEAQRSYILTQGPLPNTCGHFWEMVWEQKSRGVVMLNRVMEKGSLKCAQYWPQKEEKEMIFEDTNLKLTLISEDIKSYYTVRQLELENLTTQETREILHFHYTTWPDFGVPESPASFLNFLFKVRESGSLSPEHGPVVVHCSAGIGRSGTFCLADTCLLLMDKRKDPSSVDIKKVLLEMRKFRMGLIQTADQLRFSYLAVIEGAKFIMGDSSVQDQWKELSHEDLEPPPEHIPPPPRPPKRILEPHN
The data set is described as follows: Inhibition of PTP1B, 10-dose IC50 mode, fluorescence readout of enzyme activity. It is filed as biochemical. Conditions: for HILLSLOPE: 10-dose curve. The protocol:
The enzyme was the human truncated form (1-321), recombinantly produced in E. coli. Fluorescence was measured to monitor enzyme activity.

Data set [2] in a line: Pharmacological activity in mice as weight loss agent. It is filed as in vivo. The source says:
Food was provided ad lib.

Another data set relates to C. elegans model of PD. To be noted: cited from earlier work.
The test system of a further data set is mouse models of PD. To be noted: several mouse models of PD; cited from earlier work.
For data set [3] the following is noted: as the dilactate salt; cited from earlier work.
The conditions of data set [4]: single and repeat intravenous administration, dilactate salt, alone or in combination; cited from earlier work.
A short description of data set [5]: Phase 2 trial of oral squalamine (ENT-01): pharmacokinetics. It is filed as in vivo, human. Conditions: patients of Example 8. As to the method:
PK data were collected on the 10 patients enrolled in Stage 1 and 10 patients enrolled in Stage 2 to determine the extent of systemic absorption. In Stage 1, PK data were obtained at each visit, pre-medication, at 1, 2, 4, 8 and 24 hours (Table 9). In Stage 2, PK was measured on days 1 and 6 of the randomization period pre-medication, at 1, 2, 4 and 8 hours (Table 10).
The mean Cmax, Tmax and T1/2 and AUC of the squalamine ion following squalamine (ENT-01) oral dosing for Stage 1 patients. The PK analyses are only approximate, as the lower limit of the validated concentration range was 10 ng/ml; most of the measured concentrations fell below that value. The mean Cmax, Tmax and T1/2 and AUC of the squalamine ion following squalamine (ENT-01) oral dosing for Stage 2 patients. The PK analyses are only approximate, as the lower limit of the validated concentration range was 0.5 ng/ml.

Where [6] appears, read: i.p. 10 mg/kg on days 0, 2, 4, 6, 8 and 10, N=3.

For the compound `CC(C)[C@@H](CC[C@@H](C)C1CCC2C3C(CC[C@@]21C)[C@@]1(C)CC[C@H](NCCCNCCCCNCCCN)C[C@@H]1C[C@H]3O)OS(=O)(=O)O` (some centres unmarked) [MSI-1436, reference compound], the HILLSLOPE in data set [1] was −2.19. The results for the “% Activity” value in data set [1] (Conc 1.00E−04 M) and in data set [1] (Conc 1.11E−05 M) were −0.16% and 0.68%, respectively. The “Slope (signal/min)” value in data set [1] (Conc 1.00E−04 M) is −68 signal/min; in data set [1] (Conc 1.11E−05 M) it was 292 signal/min; in data set [1] (Conc 1.23E−06 M), 37260 signal/min; in data set [1] (Conc 1.37E−07 M) it was 40137 signal/min; in data set [1] (Conc 1.52E−08 M), 44021 signal/min; in data set [1] (Conc 3.33E−05 M), −440 signal/min. The “Slope (signal/min)” value in data set [1] (Conc 3.70E−06 M) stood at 16431 signal/min; in data set [1] (Conc 4.12E−07 M), 39959 signal/min; in data set [1] (Conc 4.57E−08 M) it was 42717 signal/min; in data set [1] (Conc 5.08E−09 M) it was 43513 signal/min. The nadir in weight in data set [2] (setting [6]) was approximately 16 days. The “recovery to starting weight” value in data set [2] (setting [6]) stood at 45 days.

Regarding `CC(C)[C@@H](CC[C@@H](C)C1CCC2C3C(CC[C@@]21C)[C@@]1(C)CC[C@H](NCCCNCCCCN)C[C@@H]1C[C@H]3O)OS(=O)(=O)O` (stereo partly drawn) [squalamine, 3 beta-N-1-(N-[3-(4-aminobutyl)]-1,3-diaminopropane)-7 alpha,24 zeta-dihydroxy-5 alpha-cholestane 24-sulfate], the muscle paralysis result in the data set on C. elegans model of PD was “complete reversal”. Further, the gastrointestinal dysmotility result with mouse models of PD is recorded as “reverse gastrointestinal dysmotility”. Further, the water solubility entry in data set [3] was “highly water soluble”. Besides, in data set [4], the well tolerated dose result is on record as “at least 300 mg/m^2”. In addition, the “systemic absorption following oral administration” value in data set [5] is given as “not significantly absorbed”.

Compound `[2H]C([2H])([2H])C([2H])(C(CC[C@@H](C)[C@H]1CCC2C3C(CC[C@@]21C)[C@@]1(C)CC[C@H](NCCCNCCCCNCCCN)C[C@@H]1C[C@H]3O)OS(=O)(=O)O)C([2H])([2H])[2H]` (some centres unmarked) [Compound D7-1436] had an HILLSLOPE in data set [1] of −2.50. The “% Activity” value in data set [1] (Conc 1.00E−04 M) is given as −0.37%; in data set [1] (Conc 1.11E−05 M) it was −0.74%; in data set [1] (Conc 1.23E−06 M) it was 80.63%; in data set [1] (Conc 1.37E−07 M), 93.14%; in data set [1] (Conc 1.52E−08 M), 101.65%; in data set [1] (Conc 3.33E−05 M) it was −0.84%. The “% Activity” value in data set [1] (Conc 3.70E−06 M) is recorded as 19.55%; in data set [1] (Conc 4.12E−07 M), 96.86%; in data set [1] (Conc 4.57E−08 M) it was 101.36%; in data set [1] (Conc 5.08E−09 M), 103.59%. In addition, the “Slope (signal/min)” value in data set [1] (Conc 1.00E−04 M) is recorded as −161 signal/min; in data set [1] (Conc 1.11E−05 M), −319 signal/min; in data set [1] (Conc 1.23E−06 M), 34760 signal/min; in data set [1] (Conc 1.37E−07 M), 40150 signal/min; in data set [1] (Conc 1.52E−08 M), 43819 signal/min; in data set [1] (Conc 3.33E−05 M), −362 signal/min. Further, the “Slope (signal/min)” value worked out at 8429 signal/min in data set [1] (Conc 3.70E−06 M), 41755 signal/min in data set [1] (Conc 4.12E−07 M), 43697 signal/min in data set [1] (Conc 4.57E−08 M) and 44655 signal/min in data set [1] (Conc 5.08E−09 M). Besides, the body weight reached entry in data set [2] (i.p. 10 mg/kg on days 0, 2, 4, 6, 8 and 10, by day 16, N=3) is given as “about 45 % of the starting weight”. Also, the “condition of the animals” value in data set [2] (i.p. 10 mg/kg on days 0, 2, 4, 6, 8 and 10, day 16) was “appeared moribund and were euthanized”. Besides, the “potency as compared with MSI-1436” value in data set [2] (weight loss, i.p. 10 mg/kg) was “increased potency”.
